Experimental data taken from patent US20240116880A1, “CERTAIN CHEMICAL ENTITIES, COMPOSITIONS, AND METHODS” (NeuPharma, Inc, priority 2020, published 2024).

Test: Accelerated and long-term stability tests of Crystalline Form I
Assay type: physicochemical
Conditions: for Purity: HPLC
Procedure: X-ray powder diffraction (XRPD) patterns were obtained on a Shimadzu XRD-6000. A CuK source (=1.54056 angstrom) operating minimally at 40 kV and 30 mA scans each sample between 5 and 50 degrees 2-theta. The step size is 0.02 degrees 2-theta and the scan speed is 1 second per step.
Differential scanning calorimetry analysis was carried out on a TA Instrument DSC unit (METTLER DSC 3). Samples were heated in non-hermetic aluminum pans from ambient to 300° C. at 20 K/min with a nitrogen purge of 50 mL/min.
High-performance liquid chromatography (HPLC) was performed using the following instrument and/or conditions.
Example 8. Stability Tests of Crystalline Form I
Crystalline Form I was not changed after storage at 40° C./75% RH for 6 months, or storage at 25° C./60% RH for 6 months.

[1] = 25° C./60% RH (closed), 0 month
[2] = 25° C./60% RH (closed), 6 months
[3] = 40° C./75% RH (closed), 0 month
[4] = 40° C./75% RH (closed), 6 months

For `CCCS(=O)(=O)Nc1cc(F)c(F)c(C(=O)c2ccc3ncc(N4CCOCC4)nc3c2)c1F` [Crystalline Form I, N-(2,4,5-trifluoro-3-(3-morpholinoquinoxaline-6-carbonyl)phenyl)propane-1-sulfonamide], the Appearance [1] was “Yellow powder”, the DSC [1] was 186.56 °C and the XRPD [1] was “Form I”. The Purity [1] was 99.93%, the Appearance [2] was “Yellow powder” and the DSC [2] was 186.08 °C. The XRPD [2] was “Form I”, the Purity [2] was 99.92% and the Appearance [3] was “Yellow powder”. The DSC [3] was 186.56 °C, the XRPD [3] was “Form I” and the Purity [3] was 99.93%. The Appearance [4] was “Yellow powder”, the DSC [4] was 186.54 °C and the XRPD [4] was “Form I”. For the same compound, the Purity [4] was 99.92%, the “Change of crystalline form after storage” value (storage at 25° C./60% RH for 6 months) was “not changed” and the “Change of crystalline form after storage” value (storage at 40° C./75% RH for 6 months) was “not changed”.
